{"source": "patent US20130035515A1", "about": "“LIGNOCELLULOSIC HYDROLYSATES AS FEEDSTOCKS FOR ISOBUTANOL FERMENTATION” (priority 2011, published 2013)", "key": {"PNY1504 [1]": {"tested_on": "PNY1504", "assay": "Fermentation of glucose to isobutanol by PNY1504 in defined medium with or without antimycin A", "format": "cell-based, Saccharomyces cerevisiae", "conditions": "glucose 35 g/L", "experimental": "(§1) Strain PNY1504 was pre-cultured in the defined medium SC-GE as described above, except that the medium was buffered to pH 6. Production cultures used the same SC medium, except either glucose or xylose was added to a final concentration of 35 g/L, and penicillin G (Sigma P3032) was added at 25 μg/ml.\n(§2) Xylulose can be taken up by yeast and metabolized via the pentose phosphate pathway. […] Souto-Maior A M, et al., J Biotechnol. 143:119-23 (2009). Thus, in order to increase flux towards fermentative products, cultures were treated with the respiratory inhibitor antimycin A (1 μM; Sigma A8674)."}, "PNY1504 [2]": {"tested_on": "PNY1504", "assay": "Fermentation of xylose to isobutanol by PNY1504 in defined medium with xylose isomerase, with or without antimycin A", "format": "cell-based, Saccharomyces cerevisiae", "experimental": "as §1\nUnless it is genetically engineered to do so, S. cerevisiae is unable to ferment xylose, but it is able to ferment xylulose. In order to test whether xylose is available for fermentation to isobutanol, it was converted to xylulose in situ by xylose isomerase (10 g/L; Sigma G4166) essentially as described in Lastick S. M., et al., Applied Microbiology and Biotechnology 30:574-579 (1989), Wang P. Y., et al., Biotechnology Letters 2:273-278 (1980) and Chandrakant P & Bisaria V S, Appl Microbiol Biotechnol 53:301-309 (2000).\nas §2"}, "[3]": {"conditions": "antimycin A-treated culture (1 μM)"}}, "data": [{"substance": "antimycin A", "values": [{"measurement": "Time in which glucose (hexose) was consumed", "setting": "PNY1504 [1]; antimycin A 1 μM", "result": "≤ 24", "unit": "h"}, {"measurement": "Isobutanol titer", "setting": "PNY1504 [1]; [3]", "result": "~3.3", "unit": "g/L"}, {"measurement": "Isobutanol yield", "setting": "PNY1504 [1]; [3]", "result": "approximately 0.08 g·g^−1"}, {"measurement": "Effect on biomass accumulation", "setting": "PNY1504 [2]; antimycin A 1 μM", "result": "reduce biomass accumulation slightly"}, {"measurement": "Effect on xylose consumption profile", "setting": "PNY1504 [2]; antimycin A 1 μM", "result": "not significantly affected"}, {"measurement": "Isobutanol production", "setting": "PNY1504 [2]; antimycin A 1 μM, at 78 hours", "result": 0.5, "unit": "g/L"}, {"measurement": "Isobutanol yield", "setting": "PNY1504 [2]; in the presence of antimycin A", "result": 0.04, "unit": "g/g"}]}]}
